Species: Rattus norvegicus
Test: Open TG-GATES - Regimen: Single
Format: toxicity, organism-based, Sprague-Dawley
Set-up: regimen Single, gender Male, age 6 weeks
Settings: in vivo, po, 20 mg/kg, route gavage, dose level Middle; for APTT / Bas / Eos / Fbg / Hb / Ht / Lym / MCH / MCHC / MCV / Mono / Neu / PT / Plat / RBC / Ret / WBC: tissue Blood; for KIDNEY_L / KIDNEY_R / KIDNEY_TOTAL: tissue Kidney; for LIVER: tissue Liver; for A/G / ALP / ALT / AST / BUN / CRE / Ca / Cl / DBIL / GLC / IP / K / LDH / Na / PL / RALB / TBIL / TC / TG / TP / gamma-GTP: tissue Plasma

SMILES: CC(C)NNC(=O)c1ccncc1 [IPRONIAZID]
- TERMINAL_BW (3 h): 203.6 g
- APTT (3 h): 21.7 s
- Bas (3 h): 0%
- Eos (3 h): 1%
- Fbg (3 h): 321.4 mg/dL
- Hb (3 h): 12.8 g/dL
- Ht (3 h): 37.7%
- Lym (3 h): 78.8%
- MCH (3 h): 21.6 pg
- MCHC (3 h): 34.1%
- MCV (3 h): 63.4 fL
- Mono (3 h): 2%
- Neu (3 h): 17.8%
- PT (3 h): 16.3 s
- Plat (3 h): 114.7 x10_4/uL
- RBC (3 h): 594.6 x10_4/ul
- Ret (3 h): 8.2%
- WBC (3 h): 62.7 x10_2/uL
- KIDNEY_L (3 h): 1 g
- KIDNEY_R (3 h): 1 g
- KIDNEY_TOTAL (3 h): 1.9 g
- LIVER (3 h): 9.6 g
- A/G (3 h): 1.3
- ALP (3 h): 1741.8 IU/L
- ALT (3 h): 35.4 IU/L
- AST (3 h): 73.2 IU/L
- BUN (3 h): 12.4 mg/dL
- CRE (3 h): 0.2 mg/dL
- Ca (3 h): 10.7 mg/dL
- Cl (3 h): 107.2 meq/L
- DBIL (3 h): 0.006 mg/dL
- GLC (3 h): 182.8 mg/dL
- IP (3 h): 8.8 mg/dL
- K (3 h): 4 meq/L
- LDH (3 h): 229.4 IU/L
- Na (3 h): 142 meq/L
- PL (3 h): 143.6 mg/dL
- RALB (3 h): 3.2 g/dL
- TBIL (3 h): 0.01 mg/dL
- TC (3 h): 78.8 mg/dL
- TG (3 h): 58.8 mg/dL
- TP (3 h): 5.7 g/dL
- gamma-GTP (3 h): 1.2 IU/L
- TERMINAL_BW (6 h): 213.3 g
- APTT (6 h): 23.3 s
- Bas (6 h): 0%
- Eos (6 h): 0.6%
- Fbg (6 h): 324.6 mg/dL
- Hb (6 h): 13.2 g/dL
- Ht (6 h): 38.9%
- Lym (6 h): 72.6%
- MCH (6 h): 21.5 pg
- MCHC (6 h): 34.1%
- MCV (6 h): 63.1 fL
- Mono (6 h): 2.6%
- Neu (6 h): 23.6%
- PT (6 h): 15.6 s
- Plat (6 h): 118.4 x10_4/uL
- RBC (6 h): 615.8 x10_4/ul
- Ret (6 h): 8%
- WBC (6 h): 79 x10_2/uL
- KIDNEY_L (6 h): 1 g
- KIDNEY_R (6 h): 1 g
- KIDNEY_TOTAL (6 h): 1.9 g
- LIVER (6 h): 9.4 g
- A/G (6 h): 1.2
- ALP (6 h): 1382.2 IU/L
- ALT (6 h): 34.4 IU/L
- AST (6 h): 72.8 IU/L
- BUN (6 h): 10.4 mg/dL
- CRE (6 h): 0.1 mg/dL
- Ca (6 h): 10.6 mg/dL
- Cl (6 h): 107 meq/L
- DBIL (6 h): 0.002 mg/dL
- GLC (6 h): 178.8 mg/dL
- IP (6 h): 10.3 mg/dL
- K (6 h): 4.3 meq/L
- LDH (6 h): 212.6 IU/L
- Na (6 h): 142 meq/L
- PL (6 h): 154.6 mg/dL
- RALB (6 h): 2.9 g/dL
- TBIL (6 h): 0.008 mg/dL
- TC (6 h): 86.4 mg/dL
- TG (6 h): 68.2 mg/dL
- TP (6 h): 5.4 g/dL
- gamma-GTP (6 h): 1.2 IU/L
- TERMINAL_BW (9 h): 207.6 g
- APTT (9 h): 22.8 s
- Bas (9 h): 0%
- Eos (9 h): 1%
- Fbg (9 h): 306.4 mg/dL
- Hb (9 h): 13.1 g/dL
- Ht (9 h): 37.8%
- Lym (9 h): 76.4%
- MCH (9 h): 21.4 pg
- MCHC (9 h): 34.6%
- MCV (9 h): 61.8 fL
- Mono (9 h): 2.6%
- Neu (9 h): 19.4%
- PT (9 h): 15.5 s
- Plat (9 h): 116.3 x10_4/uL
- RBC (9 h): 612.4 x10_4/ul
- Ret (9 h): 7.7%
- WBC (9 h): 87.5 x10_2/uL
- KIDNEY_L (9 h): 1 g
- KIDNEY_R (9 h): 1 g
- KIDNEY_TOTAL (9 h): 2 g
- LIVER (9 h): 8.6 g
- A/G (9 h): 1.3
- ALP (9 h): 1268.2 IU/L
- ALT (9 h): 35 IU/L
- AST (9 h): 70.2 IU/L
- BUN (9 h): 8.4 mg/dL
- CRE (9 h): 0.2 mg/dL
- Ca (9 h): 10.6 mg/dL
- Cl (9 h): 106.6 meq/L
- DBIL (9 h): 0.01 mg/dL
- GLC (9 h): 176.2 mg/dL
- IP (9 h): 10.2 mg/dL
- K (9 h): 4.2 meq/L
- LDH (9 h): 171 IU/L
- Na (9 h): 141.4 meq/L
- PL (9 h): 130.4 mg/dL
- RALB (9 h): 3 g/dL
- TBIL (9 h): 0.02 mg/dL
- TC (9 h): 79.2 mg/dL
- TG (9 h): 35.8 mg/dL
- TP (9 h): 5.4 g/dL
- gamma-GTP (9 h): 1 IU/L
- TERMINAL_BW (24 h): 213.8 g
- APTT (24 h): 21.6 s
- Bas (24 h): 0%
- Eos (24 h): 0.6%
- Fbg (24 h): 318.8 mg/dL
- Hb (24 h): 12.9 g/dL
- Ht (24 h): 37.7%
- Lym (24 h): 76.8%
- MCH (24 h): 20.9 pg
- MCHC (24 h): 34.2%
- MCV (24 h): 60.9 fL
- Mono (24 h): 2%
- Neu (24 h): 19.6%
- PT (24 h): 15.9 s
- Plat (24 h): 125.4 x10_4/uL
- RBC (24 h): 618.2 x10_4/ul
- Ret (24 h): 7.7%
- WBC (24 h): 81.3 x10_2/uL
- KIDNEY_L (24 h): 1 g
- KIDNEY_R (24 h): 1 g
- KIDNEY_TOTAL (24 h): 1.9 g
- LIVER (24 h): 10.1 g
- A/G (24 h): 1.2
- ALP (24 h): 1498.8 IU/L
- ALT (24 h): 38.2 IU/L
- AST (24 h): 73 IU/L
- BUN (24 h): 17.8 mg/dL
- CRE (24 h): 0.2 mg/dL
- Ca (24 h): 10.9 mg/dL
- Cl (24 h): 105.4 meq/L
- DBIL (24 h): 0.006 mg/dL
- GLC (24 h): 177.6 mg/dL
- IP (24 h): 8 mg/dL
- K (24 h): 4.5 meq/L
- LDH (24 h): 275.4 IU/L
- Na (24 h): 141.6 meq/L
- PL (24 h): 134.8 mg/dL
- RALB (24 h): 3 g/dL
- TBIL (24 h): 0.006 mg/dL
- TC (24 h): 73 mg/dL
- TG (24 h): 85.6 mg/dL
- TP (24 h): 5.5 g/dL
- gamma-GTP (24 h): 1.6 IU/L

Reference: ChEMBL document CHEMBL3885861, “Open TG-GATES”
